The record followed here is patent publication US10328075B2, “Method of treatment and compounds for use therein” (Baker Heart and Diabetes Institute, priority 2015, dated 2019).

The target in one assay is T1, hFPR1 (Homo sapiens, UniProt P21462).
T1 construct: expressed in transfected cells
T1 sequence (P21462 1-350): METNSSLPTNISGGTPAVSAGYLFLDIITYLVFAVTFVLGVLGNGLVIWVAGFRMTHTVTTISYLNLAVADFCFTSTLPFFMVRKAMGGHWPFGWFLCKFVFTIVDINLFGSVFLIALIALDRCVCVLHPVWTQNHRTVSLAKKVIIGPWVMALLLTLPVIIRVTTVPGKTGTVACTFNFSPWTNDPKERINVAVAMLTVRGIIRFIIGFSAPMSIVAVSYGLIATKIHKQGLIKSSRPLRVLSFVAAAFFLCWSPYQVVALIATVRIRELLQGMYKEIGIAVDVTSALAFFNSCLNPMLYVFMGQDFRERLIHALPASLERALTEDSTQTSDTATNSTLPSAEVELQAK
The assay is described as follows: Akt (Thr308) phosphorylation in hFPR1-FlpIn-CHO cells. The assay is classed as cell-based. The source says:
(§1) cDNDA construct and generation of stable cell lines: cDNA in pcDNA3.1^+ encoding the human formyl peptide receptors (FPR) subtypes, hFPR1, hFPR2 and hFPR3 was obtained from Invitrogen. The sequences for 3 hFPR receptors were amplified by PCR and cloned into the Gateway entry vector, pDONR202™, using the BP clonase enzyme mix, according to the manufactures' instructions (Invitrogen Inc, Carlsbad, Calif., USA). All hFPR receptors constructs in pDONR201™ were subsequently transfected into the pEF5/FRT/V5/dest vector using the LR clonase enzyme mix (Invitrogen). Receptor constructs (pEF5/FRT/V5/dest) were used to transfect FIp-In CHO cells as described previously (Valant C et al., PNAS, 2014). Cells were selected using 500 μg/mL hydromycin to generate cell lines stably expressing each receptor construct. Cells were maintained and cultured in high glucose DMEM supplemented with 10% FBS, 16 mM HEPES and 500 μg/mL hydromycin at 37° C. under a humidified atmosphere containing 5% CO2.
(§2) In the various assays described below, cells were plated into 96-well transparent cell culture plates at 4×10^4 cells per well, cultured overnight in serum-free media at 37° C. in 5% CO2.
(§3) Measurement of Akt1/2/3 phosphorylation and Akt 1: The same lysate was used for measurement of Akt1/2/3 phosphorylation (Ser473) and Akt1 (Thr308). Cells were lysed in SureFire lysis buffer and transferred to 384-well opaque proxiplates. Under low-light conditions, a 1:10:40 (v:v:v) dilution of AlphaScreen acceptor beads:Surefire activation buffer:Surefire reaction buffer was prepared and the plate was incubated in the dark at RT for 2 h. Then, a 1:20 (v:v) dilution of AlphaScreen donor beads/dilution was prepared and incubated in the dark at RT for another 2 h, before the fluorescence signal was measured by used of a Fusion-α plate reader (PerkinElmer Life and Analytical Sciences) with standard AlphaScreen settings. Receptor mediated phosphorylation of Akt1/2/3 (Ser473) and Akt1 (Thr308) were determined using the AlphaScreen™ […] SureFire™ kit, as per as per manufacturer's instructions. Data were normalized to the maximal response elicited by 10% (v:v) FBS at the same time point.
(§4) Data analysis: All data were analysed using GraphPad Prism 6.0 (GraphPad Software, San Deigo, Calif., USA). Where appropriate, concentration-response curves were fitted to derive the maximal agonist effect (Emax), and the ligand potency estimate (pEC50), where Emax is the maximal possible response of the system (not the agonist), basal is the basal level of response in the absence of agonist, and pEC50 is the negative logarithm of the agonist concentration that gives a response halfway between Emax and basal.
(§5) In the present study, FIp-IN CHO cells and Gateway plasmid were obtained from Invitrogen Inc (Carlsbad, Calif., USA). The sequences for all 3 known human FPRs (hFPR1, hFPR2 and hFPR3) were amplified by PCR and cloned into the Gateway entry vector, pDONR202TM, using the BP clonase enzyme mix, according to the manufacturers' instructions. The hFPR pDONR201TM constructs were subsequently transfected into the pEF5/FRT/V5/dest vector using the LR clonase enzyme mix (Invitrogen). Receptor constructs (pEF5/FRT/V5/dest) were used to transfect FIp-IN CHO cells, as described previously (Valant et al. 2014). Cells were selected using 500 μg/mL hydromycin to generate cell lines stably expressing each human receptor construct. Cells were maintained and cultured in high glucose Dulbecco's modified eagle medium (DMEM) supplemented with 10% fetal bovine serum (FBS, from JRH Biosciences, Lenexa, Kans., USA) and 500 μg/mL hydromycin B (Invitrogen Inc) at 37° C. under a humidified atmosphere containing 5% CO2. Cell were plated into 96-well transparent cell culture plates at 4×10^4 cells per well, cultured overnight in serum-free media at 37° C. in 5% CO2.

For a further assay, the target named is T2, hFPR2 (Homo sapiens, UniProt P25090).
T2 construct: expressed in transfected cells
T2 sequence (P25090 1-351): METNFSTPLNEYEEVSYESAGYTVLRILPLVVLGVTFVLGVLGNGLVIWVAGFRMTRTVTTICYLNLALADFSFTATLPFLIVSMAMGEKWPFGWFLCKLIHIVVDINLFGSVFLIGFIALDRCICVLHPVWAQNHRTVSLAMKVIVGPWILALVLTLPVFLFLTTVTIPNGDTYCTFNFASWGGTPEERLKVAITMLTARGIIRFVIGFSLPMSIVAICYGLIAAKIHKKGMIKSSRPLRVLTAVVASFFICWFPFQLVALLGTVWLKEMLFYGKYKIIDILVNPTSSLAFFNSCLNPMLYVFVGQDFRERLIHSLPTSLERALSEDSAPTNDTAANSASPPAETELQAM
Description: Akt1/2/3 (Ser473) phosphorylation in hFPR2-FlpIn-CHO cells. It is filed as cell-based. To be noted: for ΔLog(τ/KA), Akt 1/2/3 (Ser473) phosphorylation, hFPR2-Flpln-CHO: normalized transduction coefficient, reference agonist Cmpd43; for Log(τ/KA), Akt 1/2/3 (Ser473) phosphorylation, hFPR2-Flpln-CHO: transduction coefficient.
Source text: as §1, §2, §3, §4, §5

Where [1] appears, read: Table 3, percentage of Akt1/2/3 phosphorylation elicited by 10% FBS, read-out: Emax (%), Akt 1/2/3 (Ser473), hFPR2-Flpln-CHO.
Where [2] appears, read: Table 8, percent of response elicited by 10% FBS, read-out: Emax, Akt 1/2/3 (Ser473) phosphorylation, hFPR2-Flpln-CHO.

SMILES strings stand for the structures. Where two headings read alike, the source gives them in different places.

With `CC(C)C1C(NC(=O)Nc2ccc(Cl)cc2)C(=O)N(c2ccccc2)N1C` (stereo not shown) [BIDI-002], the Emax is 15 ± 4% on hFPR1 (Table 3, percentage of Akt1/2/3 phosphorylation elicited by 10% FBS, read-out: Emax (%), Akt 1 (Thr308) phosphorylation, hFPR1-Flpln-CHO); 15 ± 4% on hFPR1 (Table 8, percent of response elicited by 10% FBS, read-out: Emax, Akt 1/2/3 (Thr308) phosphorylation, hFPR1-Flpln-CHO); 30 ± 6% on hFPR2 (setting [1]); 30 ± 6% on hFPR2 (setting [2]). Besides, the EC50 was 129 nM on hFPR1 (Table 3, read-out: pEC50, Akt 1 (Thr308) phosphorylation, hFPR1-Flpln-CHO (converted)); 126 nM at hFPR1 (Table 8, read-out: pEC50, Akt 1/2/3 (Thr308) phosphorylation, hFPR1-Flpln-CHO (converted)); 145 nM at hFPR2 (Table 3, read-out: pEC50, Akt 1/2/3 (Ser473), hFPR2-Flpln-CHO (converted)); 158 nM at hFPR2 (Table 8, read-out: pEC50, Akt 1/2/3 (Ser473) phosphorylation, hFPR2-Flpln-CHO (converted)). Also, the “ΔLog(τ/KA), Akt 1/2/3 (Thr308) phosphorylation, hFPR1-Flpln-CHO” value on hFPR1 (Table 8, normalized transduction coefficient, reference agonist Cmpd43) is 0.0. Moreover, at hFPR1 (Table 8, transduction coefficient), the “Log(τ/KA), Akt 1/2/3 (Thr308) phosphorylation, hFPR1-Flpln-CHO” value stood at 6.9 ± 0.3. Also, at hFPR2 (Table 8), the “ΔLog(τ/KA), Akt 1/2/3 (Ser473) phosphorylation, hFPR2-Flpln-CHO” value is 0.0. Further, the “Log(τ/KA), Akt 1/2/3 (Ser473) phosphorylation, hFPR2-Flpln-CHO” value on hFPR2 (Table 8) is reported as 6.9 ± 0.4.

Regarding `CSCC[C@H](NC=O)C(=O)N[C@@H](CC(C)C)C(=O)N[C@@H](Cc1ccccc1)C(=O)O` [fMLP, N-formyl-Met-Leu-Phe], the Emax at hFPR2 (setting [1]) was found to be 13 ± 4%. For the same molecule, at hFPR2 (Table 8), the “ΔLog(τ/KA), Akt 1/2/3 (Ser473) phosphorylation, hFPR2-Flpln-CHO” value is −2.0 ± 0.2 and the “Log(τ/KA), Akt 1/2/3 (Ser473) phosphorylation, hFPR2-Flpln-CHO” value is 4.9 ± 0.2. The Emax at hFPR2 (setting [2]) stood at 20 ± 4%.
